According to patent US20100311694A1, “Set of Geldanamycin Derivatives and Their Preparation Methods” (Institute of Medicinal Biotechnology, Chinese Academy of …, priority 2008, published 2010):

Experiments:
HIV-1 = assay: Anti HIV-1 activity (HIV-1 P24 antigen in cell cultures); type: cell-based; details: 4 days after addition of the reagents
Procedure: Test Procedure of Anti HIV-1 Activity
8 reagent solutions of different diluted concentrations and positive control solutions are added into cell cultures in 96 well plate respectively. The sample of each diluted solutions is made duplicately and a control cell sample is also is set up. 100 μl of cell sample at a concentration of 2×10^5cells/ml is inoculated into the wells containing reagent in the plate. The cells samples are cultured in a saturated humidity culture chamber (at a 5% CO2 atmosphere) at 37° C. The pathological changes of cells are observed daily.

HBV = assay: Anti-HBV activity (HBV DNA in cell lysate, spot hybridization); type: cell-based; details: HBV DNA content of the cells, reagent solution changed every 4 days
Procedure: Test Procedure for Anti-HBV Activity
Using cell culture method, the preparation of the cells to be tested (100,000 cell's/mL) is inoculated into cell culture plate in 100 μl each well and the cells are cultured 24 h at 37° C. in 5% CO2. Tests are carried out when the cells grow into a monolayer. The target compounds as well as the controls are prepared into a series of solutions of appropriate concentrations using the culture medium and are added into 96 well culture plate respectively in 4 wells per one concentration. Then the reagent solution in each well is changed into the fresh reagent solution with the same concentration every 4 days. A cell control without reagent treatment is simultaneously is set up. The observation index is based upon the pathological changes of the cells by observing the degrees of the pathological changes of the cells under microscope every 8 days. […] Cell control without drug treatment is simultaneously is set up. The reagent solution or control medium in each well is changed into the fresh reagent solution or fresh medium respectively every 4 days. After cytolysis of the cells, HBV DNA is extracted from the cell lysis solution according to the molecular cloning technical procedure. The spots of different samples are hybridized and the A values of different hybridized spots are measured using autoradiograghic technique. The HBV DNA contents in the cell control as well as in the drug treated samples are calculated using the regression equations obtained from the standard curves to obtain half effective concentration values, the results are shown in Table 1.

SMILES | Activity of HIV inhibition IC50 (HIV-1) | Activity of HBV inhibition IC50 (HBV)
COC1C=CC=C(C)C(=O)NC2=CC(=O)C(Nn3cnnc3)=C(CC(C)CC(OC)C(O)C(C)C=C(C)C1OC(N)=O)C2=O (stereo not shown) [GM-W77] | 8.97 µg/mL | 7.36 µg/mL
COC1C=CC=C(C)C(=O)NC2=CC(=O)C(NCCC3CC(CC(=O)OC(C)(C)C)OC(C)(C)O3)=C(CC(C)CC(OC)C(O)C(C)C=C(C)C1OC(N)=O)C2=O (stereo not shown) [GM-W79] | 1.47 µg/mL | 3.2 µg/mL
CCOC(=O)N1CCC(NC2=C3CC(C)CC(OC)C(O)C(C)C=C(C)C(OC(N)=O)C(OC)C=CC=C(C)C(=O)NC(=CC2=O)C3=O)CC1 (stereo not shown) [GM-W80] | 0.97 µg/mL | 1.1 µg/mL
COC1C=CC=C(C)C(=O)NC2=CC(=O)C(NC(CO)c3cc(Cl)cc(Cl)c3)=C(CC(C)CC(OC)C(O)C(C)C=C(C)C1OC(N)=O)C2=O (stereo not shown) [GM-W81] | 2.46 µg/mL | 2.3 µg/mL
COC1C=CC=C(C)C(=O)NC2=CC(=O)C(NNC(=O)c3ccco3)=C(CC(C)CC(OC)C(O)C(C)C=C(C)C1OC(N)=O)C2=O (stereo not shown) [GM-W83] | 3.56 µg/mL | 3.2 µg/mL
C=CC(C)(CCC=C(C)CCC=C(C)CCC=C(C)C)OC(=O)CCCNC1=C2CC(C)CC(OC)C(O)C(C)C=C(C)C(OC(N)=O)C(OC)C=CC=C(C)C(=O)NC(=CC1=O)C2=O (stereo not shown) [GM-W84] | 1.24 µg/mL | 0.8 µg/mL
COC1C=CC=C(C)C(=O)NC2=CC(=O)C(NCCCC(=O)OCC=C(C)CCC=C(C)CCC=C(C)C)=C(CC(C)CC(OC)C(O)C(C)C=C(C)C1OC(N)=O)C2=O (stereo not shown) [GM-W85] | 0.78 µg/mL | 0.01 µg/mL
COc1cccc(CCNC2=C3CC(C)CC(OC)C(O)C(C)C=C(C)C(OC(N)=O)C(OC)C=CC=C(C)C(=O)NC(=CC2=O)C3=O)c1 (stereo not shown) [GM-W87] | 0.39 µg/mL | 0.064 µg/mL
COC1C=CC=C(C)C(=O)NC2=CC(=O)C(NCc3ccc(C)o3)=C(CC(C)CC(OC)C(O)C(C)C=C(C)C1OC(N)=O)C2=O (stereo not shown) [GM-W88] | 0.24 µg/mL | 0.08 µg/mL
COC1C=CC=C(C)C(=O)NC2=CC(=O)C(NC(C)Cc3c[nH]c4ccccc34)=C(CC(C)CC(OC)C(O)C(C)C=C(C)C1OC(N)=O)C2=O (stereo not shown) [GM-W89] | 1.68 µg/mL | 2.36 µg/mL
COC1C=CC=C(C)C(=O)NC2=CC(=O)C(NCCc3c[nH]c4ccccc34)=C(CC(C)CC(OC)C(O)C(C)C=C(C)C1OC(N)=O)C2=O (stereo not shown) [GM-W90] | 1.23 µg/mL | 0.93 µg/mL
COC1C=CC=C(C)C(=O)NC2=C(NCC3CCCO3)C(=O)C(NCC3CCCO3)=C(CC(C)CC(OC)C(O)C(C)C=C(C)C1OC(N)=O)C2=O [THFM + 2, 17,19-di-(S)-tetrahydrofurfuryl amino-17-demethoxy geldanamycin] | 0.18 µg/mL | 0.10 µg/mL
CO[C@H]1/C=C/C=C(\C)C(=O)NC2=CC(=O)C(NC[C@H]3CCCO3)=C(C[C@H](C)C[C@H](OC)[C@H](O)[C@@H](C)/C=C(\C)[C@H]1OC(N)=O)C2=O [THFM(R)-GM, 2′R-17-tetrahydrofurfurylamino-17-demethoxy geldanamycin] | 0.05 µg/mL | 0.01 µg/mL
CO[C@H]1/C=C\C=C(/C)C(=O)NC2=CC(=O)C(NC[C@@H]3CCCO3)=C(C[C@@H](C)C[C@H](OC)[C@H](O)[C@@H](C)/C=C(\C)[C@@H]1OC(N)=O)C2=O [THFM(S)-GM, 2′S-17-tetrahydrofurfurylamino-17-demethoxy geldanamycin] | 0.06 µg/mL | 0.032 µg/mL
COC1C=CC=C(C)C(=O)NC2=C(NCC3CCCO3)C(=O)C(NCC3CCCO3)=C(CC(C)CC(OC)C(O)C(C)C=C(C)C1OC(N)=O)C2=O (stereo not shown) [THFM-GM2] | 0.24 µg/mL | 0.064 µg/mL
CO[C@H]1/C=C\C=C(/C)C(=O)NC2=CC(=O)C(NCC3CCCO3)=C(C[C@@H](C)C[C@H](OC)[C@H](O)[C@@H](C)/C=C(\C)[C@@H]1OC(N)=O)C2=O (stereo partly shown) [THFM-GM, 17-tetrahydrofurfurylamino-17-demethoxy geldanamycin] | 0.14 µg/mL | 0.01 µg/mL
CO[C@H]1/C=C/C=C(\C)C(=O)NC2=C(NC[C@H]3CCCO3)C(=O)C(NC[C@H]3CCCO3)=C(C[C@H](C)C[C@H](OC)[C@H](O)[C@@H](C)/C=C(\C)[C@H]1OC(N)=O)C2=O [THFM-II, 17,19-di-(R)-tetrahydrofurfuryl amino-17-demethoxy geldanamycin] | >22.2 µg/mL | 0.013 µg/mL
